Where “and” joins values, the source holds several entries; their conditions need not be identical. Identical values can stand only once. Entries after “also recorded” stand apart in the source; their conditions may differ.
Legend:
living monkey eye [1] = details: in vivo
[2] = tested on: normal living monkey eyes; assay: Miotic and accommodative response to intramuscular pilocarpine; type: in vivo, monkeys
ciliary muscle strip = assay: Pilocarpine-induced contraction of isolated ciliary muscle strip (muscle chamber); design: species or system rhesus monkeys (Macaca mulatta)
[3] = tested on: ciliary muscle-disinserted monkey eyes; assay: Outflow facility in ciliary muscle-disinserted eyes; type: in vivo, cynomolgus and rhesus monkeys; details: H-7 300 μM, nine monkeys
corneal endothelium = details: cynomolgus monkey, in vivo
living monkey eye [4] = assay: Pupil size and refraction after topical H-7; type: in vivo, cynomolgus monkeys; details: H-7 150 mM topical, six monkeys

## C/C1=C\[C@H](C)C[C@H](C)OC(=O)C[C@H](c2ccc(O)cc2)NC(=O)[C@@H](Cc2c(Br)[nH]c3ccccc23)N(C)C(=O)[C@H](C)NC(=O)[C@@H](C)C1 [Jas]
Living monkey eye [1]
  effect of Jas on Lat B-induced facility increase: did not affect the 200 nM Lat B-induced facility increase; also recorded: did not affect the 60 nM Lat B-induced facility increase
  effect on outflow facility: no significant effect on outflow facility
  outflow facility increase, adjusted for baseline and resistance washout in contralateral eyes: 157±57%

## CC1CNCCN1S(=O)(=O)c1cccc2cnccc12 (stereo not shown) [H-7, 1-(5-isoquinolinyl-sulfonyl)-2-methylpiperazine]
[2]; H-7 intracameral (~300 μM) or intravitreal (300 μM-1.2 mM)
  effect on pilocarpine-induced miosis: inhibits ipsilateral pilocarpine-induced miosis
[2]; H-7 intracameral or intravitreal
  effect on pupil after phenylephrine: dilates the ipsilateral pupil even beyond the effect of phenylephrine
Living monkey eye [1]
  drug-free baseline facility vs first baseline: significant increase in facility
Ciliary muscle strip
  selectivity longitudinal vs circular vector: no selectivity for one vector over the other
Ciliary muscle strip; 10 μM pilocarpine + 300 μM H-7
  time to inhibition of the initial pilocarpine contraction: ≤ 10 min
Ciliary muscle strip; 90 minute washout after 300 μM H-7
  contraction to 10 μM pilocarpine after washout: no contraction in either vector
Ciliary muscle strip; 2.5 hours after removal of H-7
  contraction to 10 μM pilocarpine after washout: sluggish contraction in both vectors
[3]
  facility increase, ciliary muscle disinserted vs non-disinserted eyes: essentially identical proportional increase in outflow facility
Corneal endothelium
  change in corneal endothelial cell counts: did not reveal a statistical change in cell counts
  corneal endothelial cell morphology: no morphological changes in cells were observed
Living monkey eye [4]
  effect on pupil size: did have an effect on pupil size
  effect on refraction: no statistically significant difference in refraction

## CN[C@@H]1C[C@H]2O[C@@](C)([C@@H]1OC)n1c3ccccc3c3c4c(c5c6ccccc6n2c5c31)C(=O)NC4 [staurosporine]
Living monkey eye [1]
  Facility PRx, Rx/Cont: 1.99 ± 0.43 and 1.03 ± 0.17 and 1.57 ± 0.25
